Results taken from PMC6733959, “Synthesis and Evaluations of Novel Apocynin Derivatives as Anti-Glioma Agents” (Frontiers in Pharmacology, 2019).

What was measured:
[1] = tested on: NADPH oxidase (NOX); assay: NOX activity determination, C6 cells; type: cell-based, rat; settings: 20 and 50 μM
Description: (§1) The effects of candidate drug on NOX activities were measured using cytochrome c reductase (NADPH) Assay Kit (Sigma-Aldrich, St. Louis, MO, USA). Brieﬂy, after the compound treatment (20, 50 μM), the cells were collected and homogenized in an isotonic buffer ([…]), and centrifuged at 1,000 g to obtain the post-nuclear supernatants. Then 50μl samples were added to 950μl working solution (at 25°C) in a 1ml cuvette and mixed by inversion. Then 20μl cytochrome c oxidase inhibitor solution was added. After reaction with 100 μl NADPH solution, the cytochrome c absorbance was monitored at 550 nm by a spectrophotometer.

[2] = set-up: method as in Wang et al., 2008; settings: ref Wang et al., 2008; cited from earlier work
[3] = tested on: NADPH oxidase (NOX); assay: NOX activity determination, U87 cells; type: cell-based, human; settings: 20 and 50 μM
Description: as §1

[4] = tested on: rat BMECs; assay: Cytotoxicity of apocynin derivatives on rat BMECs (MTT, 24 h); type: cell-based; settings: 100 μM, vs control, P < 0.05
Description: (§2) Rat brain microvascular endothelial cells (BMECs) were separated from the cerebral cortex of 18-day-old male Sprague-Dawley rats as described previously ([Biegel et al., 1995]). Briefly, the cerebral cortical tissues were dissected from meninges after the rats were sacrificed, then the tissues were homogenated in physiological buffer solution (pH 7.4). After centrifugation, the pellets were collected, and the microvascular segments were then digested with 0.1% collagenase II at 37°C for 1 h. […] The second passage was used for co-culture of BBB cellular models.
Rat BMECs were collected and seeded into 96-well culture plates at a density of 7.5 × 10^3 cells/well overnight. The cells were treated with different concentrations of the compounds (10, 20, and 100 μM) for 24 h, respectively. Then, 20-μl MTT (5 mg/ml) in fresh medium was added to each well and incubated for another 4 h. Finally, 150μl dimethyl sulfoxide (DMSO) was added to dissolve formazan crystals, and the absorbance was detected at 490 nm in a multiwall-plate reader (BioTek ELx800).

[5] = Transport experiment in the in vitro BBB cell model; type: in vitro ADME; settings: Sprague-Dawley, rat, apical to basolateral, mean ± SD (n = 3-4), read-out: Papp × 10^−6; for Papp at 90 min, 20 μM: C0 20 μM; for Papp at 90 min, 100 μM: C0 100 μM
Description: as §2
Astrocytes were separated from the cerebral cortex of newborn Sprague-Dawley rats (1–2 days) as described previously ([Jeliazkova-Mecheva and Bobilya, 2003]). The brain tissues (removal of the meninges and blood vessel) were minced and mechanical homogenized and then digested with 0.25% trypsin-EDTA at 37°C for 10 min.
The in vitro BBB cell model was constructed in the Transwell 24well plate ([…], Millipore, USA). Before the experiment, the transwell filters were coated with matrigel matrix. The isolated rat astroglias were seeded onto one side of polycarbonate inserts (5 × 10^4 cells/insert). After 3 to 5 days, the rat BMECs were seeded at a density of 1.5 × 10^5 cells/insert onto the opposite side of the inserts to produce rat BMEC monolayers. The in vitro BBB cell model was formed 3 to 4 days. Trans-epithelial electrical resistance (TEER) measurements were performed everyday after the co-cultures formed until the TEER value increased to […] ([Yang et al., 2014]) ( Figure 2C ).
The transport experiments were performed by adding 400 μl HBSS containing the compounds to the apical side (AP), with 600μl HBSS to the basolateral side (BL) at the same time. Samples (60 μl) were collected from the BL chamber at the time points of 15, 30, 60, 90, 120, and 180 min, and the corresponding volume of HBSS buffer was immediately added into the BL chamber. The samples were precipitated by methanol, and the concentrations of the compounds in the samples were determined by high-performance liquid chromatography (HPLC). The HPLC conditions were as follows: Agilent TC-C18 column (250 × 4.6 mm; 5 μm), methanol 1% ethanoic acid mobile phase (from 10:90 to 90:10, v/v), with gradient elution at a flow rate of 1.0 ml/min. The detection wavelength was 275 nm for these compounds. The run time was 20 min. The apparent permeability coefficients (P app) were calculated from the following formula: P app = (∆Q/∆t)/(A × C 0), where ∆Q/∆t is the linear appearance rate of the compound on the BL side (μmol/s), A is the surface area of the cell monolayer (cm^2), and C 0 is the initial concentration of the drug on the AP side (μmol/L).

[6] = tested on: rat C6 glioma cells; assay: Anti-glioma MTT assay, C6 cells; type: cell-based; settings: for Anti-proliferation effect on C6 cells (first screening): 10, 20, 100 μM, compared with D1, P < 0.05; for IC50: Rattus norvegicus, C6 cells
Description: (§3) The anti-glioma effects of these compounds were evaluated by MTT assay in rat C6 glioma cells, human glioma U87 and U251 cells, and BMECs cells. Brieﬂy, cells were seeded at the density of 4,000 cells/well in 96-well plates overnight. For the first screening, the cells were incubated with 10, 20, 100 μM compounds for 48 h. Then cell viabilities were detected by MTT assay as described above. For the second screening, the cells were incubated with 6.25-, 12.5-, 25-, 50-, and 100μM compounds for 48 and 96 h, and then detected by MTT assay. The OD of each well was measured at 490 nm on an ELISA microplate reader. The inhibitory rates and IC50 values were calculated.

[7] = tested on: human glioma U87 cells; assay: Anti-glioma MTT assay, U87 cells; type: cell-based; settings: for Anti-proliferation effect on U87 cells (first screening): 10, 20, 100 μM, compared with D1, P < 0.05; for IC50: Homo sapiens, U-87 MG, U87 cells
Description: as §3

[8] = tested on: human glioma U251 cells; assay: Anti-glioma MTT assay, U251 cells; type: cell-based
Description: as §3

[9] = tested on: C6 glioma; assay: Rat C6 glioma model; type: in vivo; settings: C6 glioma-bearing Wistar rats, 25 mg/kg i.p. daily; for Tumor volume vs control group: MRI 13 days after treatment
Description: C6 glioma model was established as previously reported ([Xu etal., 2016]). The C6 glioma cells in the logarithmic growth phase were collected for implantation. Male Wistar rats (male, 160–180g) were anesthetized with 10% chloral hydrate, and then a hole (1 mm diameter) was drilled in the cranial bone. C6 cells in PBS were injected slowly (3 × 10^6 cells/rat).
Tumors in the brains of the rats were detected by Bruker 7.0 T Micro-MRI using a T2W RARE sequence (TR/TE 3000/15 ms; slice thickness, 1.0 mm; flip angle, 180°; Matrix 256×256; slice gap, 1.0 mm; FOV, 33×33 mm; time, 4.8 min) 7 days after implantation. Tumor volumes (V) were calculated by the following formula: V = (4/3 × π × LHW)/8, where L is the maximum anteroposterior diameter, H and W are the height and width. Then the rats were sacrificed, and the brain tissues were fixed with formalin, embedded in paraffin, sectioned, and subjected to hematoxylin/eosin (HE) staining and immunohistochemical staining for glial fibrillary acidic protein (GFAP) as previously described ([Xu et al., 2016]). The sections from each animal were analyzed by a pathologist. Only rats with maximum intracerebral tumor diameter of >5.0 mm were used.
After the successful implantation, the rats were randomly divided into […] and treated with different drugs by intraperitoneal injection daily: control group (PBS, n = 6), TMZ group (25 mg/kg, n = 6), D14 group (25 mg/kg, n = 6), and D31 group (25 mg/kg, n = 6). The body weights were recorded everyday after administration. Thirteen days after treatment, brain tumors in the rats were detected by Bruker 7.0 T Micro-MRI as described above. Tumor volumes were calculated and recorded as above.

[10] = tested on: BMECs; assay: MTT assay on normal BMECs (48 and 96 h); type: cell-based; settings: Rattus norvegicus
Description: as §2, §3

[11] = cited from earlier work; for BBB penetration rate relative to morphine: ref Oldendorf et al., 1972

For COc1cc(C(C)=O)ccc1O [Compound D1, 4-hydroxy-3-methoxyacetophenone, reference compound], the “Effect on NOX activities vs control” value [1] is listed as “significantly inhibited”, the “Amount in the brain tissue relative to that present in the blood” value [2] is listed as less than 8% and the “Effect on NOX activities vs control” value [3] is listed as “significantly inhibited”. The “Effect on cell viability of rat BMECs” value [4] was “significantly inhibit the cell viability” and the Papp at 90 min, 20 μM [5] was 4.95 ± 0.39 ×10⁻⁶ cm/s.
Work on COc1cc(C(=O)CNc2ccccc2)ccc1OCc1ccccc1 [Compound D5, 1-(4-(Benzyloxy)-3-Methoxyphenyl)-2-(Phenylamino)Ethan-1-One] yielded a Papp at 90 min, 100 μM [5] of 10.3 ± 0.31 ×10⁻⁶ cm/s.
With COc1cc(C(=O)CNc2ccc(F)cc2)ccc1OCc1ccccc1 [Compound D6, 1-(4-(Benzyloxy)-3-Methoxyphenyl)-2-((4-Fluorophenyl)Amino) Ethan-1-One] the Papp at 90 min, 100 μM [5] was 8.68 ± 0.45 ×10⁻⁶ cm/s.
With COc1cc(C(=O)CNc2ccccc2)ccc1O [Compound D13, 1-(4-Hydroxy-3-Methoxyphenyl)-2-(Phenylamino)Ethan-1-One] the “Effect on cell viability of rat BMECs” value [4] was “significantly inhibit the cell viability”, the “Anti-proliferation effect on C6 cells (first screening)” value (“Anti-proliferation effect on C6 cells” for short) ([6]; 48 h) was “significant anti-proliferation effects” and the Papp at 90 min, 20 μM [5] was 5.41 ± 0.52 ×10⁻⁶ cm/s.
With COc1cc(C(=O)CNc2ccc(F)cc2)ccc1O [Compound D14, 2-((4-Fluorophenyl)amino)-1-(4-Hydroxy-3-Methoxyphenyl)Ethan-1-One] the “Anti-proliferation effect on U87 cells (first screening)” value ([7]; 48 h) was “significant anti-proliferation effects”, the IC50 ([7]; 48 h) was 61.6 µM and the IC50 ([7]; 96 h) was 60.1 µM. For the same molecule, the IC50 ([8]; U-251, 48 h) was 71.6 µM, the IC50 ([8]; U-251, 96 h) was 34.5 µM and the “Body weight changes vs control group” value [9] was “no obvious body weight changes”. The “Tumor volume vs control group” value [9] was “no obvious growth inhibitory effects”, the “Effect on cell viability of rat BMECs” value [4] was “significantly inhibit the cell viability” and the “Anti-proliferation effect on C6 cells” value ([6]; 48 h) was “significant anti-proliferation effects”. For the same molecule, the IC50 ([6]; 48 h) was 37.2 µM, the IC50 ([6]; 96 h) was 22.9 µM and the Papp at 90 min, 20 μM [5] was 4.24 ± 1.3 ×10⁻⁶ cm/s. It also gave an IC50 ([10]; 48 h) greater than 100 µM and an IC50 ([10]; 96 h) of 78.2 µM.
With COc1cc(NCC(=O)c2ccc(O)c(OC)c2)cc(OC)c1 [Compound D16, 2-((3,5-Dimethoxyphenyl)Amino)-1-(4-Hydroxy-3-Methoxyphenyl)Ethan-1-One] the “Effect on cell viability of rat BMECs” value [4] was “significantly inhibit the cell viability” and the Papp at 90 min, 20 μM [5] was 2.54 ± 0.58 ×10⁻⁶ cm/s.
With COc1cc(C(=O)CNc2ccc(F)cc2F)ccc1O [Compound D21, 2-((2,4-Difluorophenyl)Amino)-1-(4-Hydroxy-3-Methoxyphenyl)Ethan-1-One] the Papp at 90 min, 100 μM [5] was 6.08 ± 0.65 ×10⁻⁶ cm/s.
For COc1cc(C(=O)CNc2ccc(Cl)cc2)ccc1O [Compound D22, 2-((4-Chlorophenyl)Amino)-1-(4-Hydroxy-3-Methoxyphenyl)Ethan-1-One], the Papp at 90 min, 100 μM [5] was 5.42 ± 0.58 ×10⁻⁶ cm/s.
For COc1cc(C(=O)CSCc2ccccc2)ccc1O [Compound D33, 2-(Benzylthio)-1-(4-Hydroxy-3-Methoxyphenyl)Ethan-1-One], the “Effect on cell viability of rat BMECs” value [4] was “significantly inhibit the cell viability”, the “Anti-proliferation effect on C6 cells” value ([6]; 48 h) was “significant anti-proliferation effects” and the Papp at 90 min, 20 μM [5] was 9.58 ± 2.35 ×10⁻⁶ cm/s.
With COc1cc(C(=O)CSCc2ccc(F)cc2)ccc1O [Compound D34, 2-((4-Fluorobenzyl)Thio)-1-(4-Hydroxy-3-Methoxyphenyl)Ethan-1-One] the “Effect on cell viability of rat BMECs” value [4] was “significantly inhibit the cell viability”, the “Anti-proliferation effect on C6 cells” value ([6]; 48 h) was “significant anti-proliferation effects” and the Papp at 90 min, 20 μM [5] was 11.9 ± 1.53 ×10⁻⁶ cm/s.
For CCC1(c2ccccc2)C(=O)NC(=O)NC1=O [Phenobarbital, 5-ethyl-5-phenylbarbituric acid], the “BBB penetration rate relative to barbituric acid” value ([11]; ref Liu et al., 2007) is given as “increased BBB penetration rate”.
For Cn1nnc2c(C(N)=O)ncn2c1=O [TMZ, Temozolomide, reference compound], the “Anti-proliferation effect on U87 cells (first screening)” value ([7]; 48 h) was “significant anti-proliferation effects”, the IC50 ([7]; 48 h) was 54.1 µM and the IC50 ([7]; 96 h) was 28.4 µM. The IC50 ([8]; U-251, 48 h) was 48.1 µM, the IC50 ([8]; U-251, 96 h) was 15.3 µM and the “Body weight changes vs control group” value [9] was “no obvious body weight changes”. For the same molecule, the “Tumor volume vs control group” value [9] was “significantly decreased”, the “Effect on cell viability of rat BMECs” value [4] was “significantly inhibit the cell viability” and the “Anti-proliferation effect on C6 cells” value ([6]; 48 h) was “significant anti-proliferation effects”. It also gave an IC50 ([6]; 48 h) of 51.1 µM, an IC50 ([6]; 96 h) of 36.8 µM and a Papp at 90 min, 20 μM [5] of 7.74 ± 0.34 ×10⁻⁶ cm/s. It also gave an IC50 ([10]; 48 h) of 94.5 µM and an IC50 ([10]; 96 h) of 54.4 µM.
In the case of COc1ccc2c3c1O[C@H]1[C@@H](O)C=C[C@H]4[C@@H](C2)N(C)CC[C@@]341 [codeine], the “BBB penetration rate relative to morphine” value [11] is given as 10 times.
In the case of CC(=O)Oc1ccc2c3c1O[C@H]1[C@@H](OC(C)=O)C=C[C@H]4[C@@H](C2)N(C)CC[C@@]341 [heroin, diacetylmorphine], the “BBB penetration rate relative to morphine” value [11] is listed as 100 times.
